The values below come from paper PMC6108835, “Target-Based Discovery of an Inhibitor of the Regulatory Phosphatase PPP1R15B” (Cell, 2018).

One series deals with T1, R15B (Homo sapiens, UniProt Q5SWA1).
T1 construct: endogenous in cells; host or cells: HeLa
T1 sequence (Q5SWA1 1-713): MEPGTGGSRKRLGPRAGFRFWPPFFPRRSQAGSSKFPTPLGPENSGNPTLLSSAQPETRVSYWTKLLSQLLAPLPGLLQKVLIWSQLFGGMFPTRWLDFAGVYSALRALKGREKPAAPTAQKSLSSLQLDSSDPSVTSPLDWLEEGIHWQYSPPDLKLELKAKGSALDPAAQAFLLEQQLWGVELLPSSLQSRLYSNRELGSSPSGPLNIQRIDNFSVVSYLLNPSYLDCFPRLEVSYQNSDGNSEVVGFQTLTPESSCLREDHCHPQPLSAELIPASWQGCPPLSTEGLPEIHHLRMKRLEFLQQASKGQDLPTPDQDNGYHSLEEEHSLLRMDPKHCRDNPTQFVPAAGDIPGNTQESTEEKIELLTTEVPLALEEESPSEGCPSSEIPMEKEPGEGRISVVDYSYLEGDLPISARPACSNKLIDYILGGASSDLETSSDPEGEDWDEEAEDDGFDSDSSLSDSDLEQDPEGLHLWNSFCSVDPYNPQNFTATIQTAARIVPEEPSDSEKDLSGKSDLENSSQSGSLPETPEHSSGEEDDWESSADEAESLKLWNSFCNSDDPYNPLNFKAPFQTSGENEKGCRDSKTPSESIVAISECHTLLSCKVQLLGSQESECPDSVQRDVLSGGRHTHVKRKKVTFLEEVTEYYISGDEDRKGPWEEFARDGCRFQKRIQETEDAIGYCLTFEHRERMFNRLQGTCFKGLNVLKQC
Briefly: R15B levels on immunoblots of HeLa cell lysates. The following applies: HeLa cells, Raphin1 10 μM. Format: cell-based. The procedure:
HeLa or MEF cells (90,000 cells/mL) were plated in 12-well plates (1 mL/well). The following day cells were treated as indicated; the medium was removed, fresh medium containing compound added and incubated at 37°C for the times indicated. The time course was performed in reverse order to facilitate collecting all samples at the same time. At the end of treatment cells were washed two times with ice-cold PBS and lysed in 150 μL Laemmli Buffer. […] Proteins were transferred to the nitrocellulose membrane using the iBlot 2 system (ThermoFisher Scientific). Membrane was blocked in 5% skimmed milk for 30 min and then probed with primary antibodies followed by incubation with the appropriate horseradish peroxidase-conjugated secondary antibodies (Promega). Proteins were visualized using ECL Prime (GE Healthcare) and imaged in the Chemi-Smart 5000 (Vilber-Lourmat, France) or ChemiDoc Touch (BioRad). Bands were quantified using ImageJ (NIH, USA).
(In western blotting, separated proteins are transferred to a membrane and probed.)

Series [1] relates to R15B-PP1c holophosphatase (R15B^340-698-PP1c). Briefly: Holophosphatase SPR, compounds binding to reconstituted R15B-PP1c. Also noted: species or system human. The note with it: ratio of SPR KD values. How it is done:
(§1) Small molecules were stored as 50 mM stock solutions in 100% DMSO. […] If necessary the concentration range was adjusted to accurately determine the KD depending on the initial results. […] This was followed by 1 min stabilization period, to wash off any unspecific binding. […] After each dilution series, the surface was regenerated using 3 M NaCl for 90 s. […] In order to be able to correct for small variations in DMSO concentration between samples, eight solvent samples ranging from 0.06 to 8% DMSO were injected every 50th cycle. The flow cell temperature was 20°C.

Series [2] addresses T2, R15B-PP1c holophosphatase (R15B^340-698-PP1c) (Homo sapiens, UniProt Q5SWA1).
T2 construct: cDNAs encoding amino acids 325-636 of R15A and 340-698 of R15B were cloned into pMAL-c5x; made in house; host or cells: R15B: E. coli BL21-Gold (DE3) pLysS; bio-PP1c: Sf9 insect cells (baculovirus)
Described as above. The following applies: holophosphatase reconstituted on SA chip; 20°C; mean ± SD; read-out: KD, steady-state affinity for R15B-PP1c. The procedure:
as §1

The target in series [3] is T3, R15A-PP1c holophosphatase (R15A^325-636-PP1c) (Homo sapiens, UniProt O75807).
T3 construct: cDNAs encoding amino acids 325-636 of R15A and 340-698 of R15B were cloned into pMAL-c5x; made in house; host or cells: R15A: E. coli BL21-Gold (DE3) pLysS; bio-PP1c: Sf9 insect cells (baculovirus)
T3 sequence (O75807 325-636, stated change not applied): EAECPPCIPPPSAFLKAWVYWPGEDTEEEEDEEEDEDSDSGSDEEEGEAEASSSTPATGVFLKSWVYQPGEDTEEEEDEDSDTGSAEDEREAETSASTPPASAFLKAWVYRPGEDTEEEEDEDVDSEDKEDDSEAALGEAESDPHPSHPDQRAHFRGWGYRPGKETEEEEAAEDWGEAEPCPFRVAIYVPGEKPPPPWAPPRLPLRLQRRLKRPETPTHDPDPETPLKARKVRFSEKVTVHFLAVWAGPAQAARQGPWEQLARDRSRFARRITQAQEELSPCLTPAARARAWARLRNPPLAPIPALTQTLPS
T3 sequence (P36873 1-322 partner): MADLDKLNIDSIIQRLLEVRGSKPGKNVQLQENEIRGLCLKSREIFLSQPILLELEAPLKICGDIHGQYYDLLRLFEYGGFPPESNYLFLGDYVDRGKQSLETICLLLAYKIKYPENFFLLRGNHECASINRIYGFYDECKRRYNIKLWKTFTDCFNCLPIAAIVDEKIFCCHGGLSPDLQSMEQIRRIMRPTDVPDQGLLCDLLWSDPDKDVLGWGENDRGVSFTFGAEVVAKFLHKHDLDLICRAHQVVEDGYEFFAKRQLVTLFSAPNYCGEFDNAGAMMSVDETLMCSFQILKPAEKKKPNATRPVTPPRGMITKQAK
Briefly: Holophosphatase SPR, compounds binding to reconstituted R15A-PP1c. The note with it: holophosphatase reconstituted on SA chip; 20°C; mean ± SD; read-out: KD, steady-state affinity for R15A-PP1c. The procedure:
as §1

Series [4] can be described thus: Monitoring Raphin1 stability in cell culture media. The class given is physicochemical. The following applies: 10 μM, 37°C, 0-10 hr, mass spectrometry. The procedure:
Raphin1, 10 μM (from a 10 mM DMSO stock), was added to 20 mL of pre-warmed water or cell culture media, in tightly-sealed 20 mL glass vials to reduce evaporation and incubated in an incubator at 37°C. 50 μL samples were taken at 0, 1, 2, 5, 7.5 and 10 hr and added to an Eppendorf tube containing 200 μL of chilled acetonitrile and internal standards. The samples were stored in a −20°C freezer until the end of the study. The samples were then analyzed by mass spectrometry using a TQ-S micro Triple Quadrupole from Waters and compared against a standard curve prepared in the same manner as the samples.

Series [5] addresses Adrenergic α2A (FAST-006A) receptor (Homo sapiens, UniProt P08913). Nature of the series: α2-adrenergic activity in cells expressing recombinant receptor (Euroscreen). The class given is cell-based. The following applies: agonist testing, also videos of mice at 10 mg/kg. How it is done: α2-adrenergic activity was measured by Euroscreen. Adrenergic α2A (FAST-006A) receptor cells grown 18 hr prior to the test in media without antibiotics were detached by gentle flushing with PBS-EDTA (5 mM EDTA), recovered by centrifugation and re-suspended in “assay buffer” (DMEM/HAM’s F12 with HEPES + 0.1% BSA protease free). Cells were incubated at RT for at least 4 hr with Coelenterazine h (Molecular Probes). Dose response curves with the reference compounds were performed before testing the compounds. For agonist testing, 50 μL of cell suspension was mixed with 50 μL of test compound or reference agonist plated in a 96-well plate. The resulting emission of light was recorded using the Hamamatsu Functional Drug Screening System 6000 (FDSS 6000). Agonist activity of test compound was expressed as a percentage of the activity of the reference agonist at its EC100 concentration.

T2 sequence (P36873 1-322 partner limits assumed, one chain of several): as the sequence (P36873 1-322 partner) above
Chain of Adrenergic α2A (FAST-006A) receptor (P08913 whole entry): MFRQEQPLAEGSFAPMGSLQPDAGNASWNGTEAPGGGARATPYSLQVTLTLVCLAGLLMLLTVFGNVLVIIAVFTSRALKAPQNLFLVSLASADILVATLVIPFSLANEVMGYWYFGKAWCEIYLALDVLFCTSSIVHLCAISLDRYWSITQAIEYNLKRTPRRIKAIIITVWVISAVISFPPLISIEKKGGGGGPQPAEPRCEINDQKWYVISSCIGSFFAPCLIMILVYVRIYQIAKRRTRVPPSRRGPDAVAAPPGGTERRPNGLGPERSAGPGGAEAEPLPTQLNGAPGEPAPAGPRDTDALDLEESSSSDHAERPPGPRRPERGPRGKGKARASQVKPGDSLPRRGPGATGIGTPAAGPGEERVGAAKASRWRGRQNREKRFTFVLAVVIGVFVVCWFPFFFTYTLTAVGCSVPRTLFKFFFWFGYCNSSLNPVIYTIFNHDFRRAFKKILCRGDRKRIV

Broadly, the Kd is the equilibrium constant for the complex coming apart. For the compound `[H]/N=C(\N)NN=Cc1cccc(Cl)c1Cl` [Raphin1, (E)-2-(2,3-dichlorobenzylidene)hydrazine-1-carboximidamide], the R15B levels result at R15B was “significantly decreased”. In addition, the “Selectivity in binding R15B-PP1c over R15A-PP1c” value in series [1] is ~30 fold. Also, the Kd in series [2] was determined as 33 ± 20 nM; in series [3], 977 nM. The “Stability in cell culture media over time” value in series [4] is on record as “stable”. Besides, in series [5], the α2-adrenergic activity entry is on record as “lacked”.
